Literature values as cited in US12226415B2, “Methods and compositions for the treatment of hair loss” (Aneira Pharma Inc., priority 2019, dated 2025).

Assays:
human FP receptors = human FP receptors (Homo sapiens, UniProt P43088)
hair growth = details: for hair growth: McCarey et al. 2004
intraocular pressure = details: glaucomatous monkey eyes, Gagliuso et al. 2004
[1] = system: elevated intraocular pressure; details: some human glaucoma patients non-responsive to latanoprost, Gandolfi 2003
[2] = system: production of dihydrotestosterone (DHT); details: oral; including in the prostate gland and the scalp
[3] = propylene glycol, methanol, ethanol and 2-propanol

Sequence of human FP receptors (P43088 whole entry): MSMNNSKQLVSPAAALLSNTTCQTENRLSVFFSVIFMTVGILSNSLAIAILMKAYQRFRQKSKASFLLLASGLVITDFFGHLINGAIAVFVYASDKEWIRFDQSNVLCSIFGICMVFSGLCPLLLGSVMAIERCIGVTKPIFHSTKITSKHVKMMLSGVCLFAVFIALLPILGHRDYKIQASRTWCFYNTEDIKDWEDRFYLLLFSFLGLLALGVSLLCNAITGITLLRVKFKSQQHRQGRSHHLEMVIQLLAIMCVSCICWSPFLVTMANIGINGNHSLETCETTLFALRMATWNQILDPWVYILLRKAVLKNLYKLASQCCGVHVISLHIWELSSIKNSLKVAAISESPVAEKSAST

**Q.** Which “potency relative to PGF2α” value (human FP receptors) does the source give for `O=C(O)CCC/C=C\C[C@@H]1[C@@H](CC[C@@H](O)CCc2ccccc2)[C@H](O)C[C@@H]1O` [Latanoprost free acid] here?
**A.** twice the potency of PGF2α

**Q.** Which hair growth (hair growth) does the source give for `CCCCCCCC(=O)CC[C@@H]1[C@@H](C/C=C\CCCC(=O)OC(C)C)[C@@H](O)C[C@H]1O` [Uenoprostone isopropyl ester] here?
**A.** no hair growth

**Q.** What about the “incidence of iris pigmentation and eyelash changes” value (hair growth; two randomized clinical trials, 0.15%) of the same compound?
**A.** Low incidence

**Q.** Which results are given for `CCNC(=O)CCC/C=C\C[C@@H]1[C@@H](/C=C/[C@@H](O)CCc2ccccc2)[C@H](O)C[C@@H]1O` [bimatoprost]?
**A.** effect on elevated intraocular pressure in combination with latanoprost (intraocular pressure): additive; response in reducing elevated intraocular pressure [1]: responsive

**Q.** For `CC(C)(C)NC(=O)[C@H]1CC[C@H]2[C@@H]3CC[C@H]4NC(=O)C=C[C@]4(C)[C@H]3CC[C@]12C` [finasteride, (1S,3aS,3bS,5aR,9aR,9bS,11aS)—N-tert-butyl-9a,11a-dimethyl-7-oxo-1,2,3,3a,3b,4,5,5a,6,9b,10,11-dodecahydroindeno[5,4-f]quinoline-1-carboxamide], which “decrease of production of dihydrotestosterone (DHT)” value [2] is on record?
**A.** about 70%

**Q.** For `CC(C)OC(=O)CCC/C=C\C[C@@H]1[C@@H](CC[C@@H](O)CCc2ccccc2)[C@H](O)C[C@@H]1O` [latanoprost, isopropyl ester of 17-phenyl-13,14-dihydro prostaglandin F2a], which “solubility (concentration that can be obtained)” value [3] is on record?
**A.** ≥ 5%

**Q.** Which hair growth (hair growth) does the source give for `CCCCCCCC(=O)CC[C@@H]1[C@@H](C/C=C\CCCC(=O)O)[C@@H](O)C[C@H]1O` [uenoprostone free acid] here?
**A.** no hair growth
